Reference: patent US20260098033A1, “NOVEL CRYSTALLINE FORM OF ENAVOGLIFLOZIN, AND PREPARATION METHOD THEREFOR” (DAEWOONG PHARMACEUTICAL CO., LTD., priority 2022, published 2026)

Experiments:
[1] = Evaluation of hygroscopicity (weight change in desiccators at set relative humidity); type: physicochemical; conditions: for Weight change: two days or more, 60 mg
Procedure: The crystalline form A of enavogliflozin in the known Korean Unexamined Patent Application Publication No. 2017-0142904 and the enavogliflozin crystalline form E were taken in amounts of 60 mg each and placed in desiccators at relative humidity of 11%, 33%, 54%, 75%, and 93%, each for two days or more to absorb moisture, and then the weight change was measured.

[2] = Stress stability evaluation for heat (60° C.), HPLC purity; type: physicochemical; conditions: for Purity: 60° C.
From the text: (§1) To confirm the possibility of commercializing the novel crystalline form E of enavogliflozin of the present invention, the crystalline form A of enavogliflozin in Korean Unexamined Patent Application Publication No. 2017-0142904 was used as a control to test stress stability, and analyzed by high performance liquid chromatography (HPLC), and the results are shown in Tables 4 and 5.

[3] = Stress stability evaluation for moisture (93% RH), HPLC purity; type: physicochemical; conditions: for Purity: 93% RH
From the text: as §1

[4] = Pharmacokinetic study in beagle dogs, oral administration; type: in vivo, beagle dog; conditions: 1 mg/kg
Procedure: Pharmacokinetic profiles of crystalline form A of enavogliflozin and the novel crystalline form E were to be confirmed in beagle dogs. The crystalline form A of enavogliflozin was set as a control, the novel crystalline form E was set as a comparison group, and each of the crystalline form A of enavogliflozin and the novel crystalline form E was orally administered to a male beagle dog at a dose of 1 mg/kg, and blood samples were collected before administration (0 hours), and at 0.083, 0.25, 0.5, 0.75, 1, 1.5, 2, 4, 6, 8, 12, and 24 hours (a total of 13 times). Blood drug concentrations were analyzed by LC-MS/MS using plasma separated from the collected samples, and pharmacokinetic parameters such as the maximum observed plasma concentration (Cmax), an area under the plasma concentration-time curve (AUClast and AUCinf), a time-to-maximum observed plasma concentration (Tmax), and a half-life (T1/2) were calculated and interpreted using the WinNonlin 5.0.1 program.

[5] = beagle dog, relative to crystalline form A

SMILES	Weight change ([1]; relative humidity 11%)	Weight change ([1]; relative humidity 33%)	Weight change ([1]; relative humidity 54%)	Weight change ([1]; relative humidity 75%)	Weight change ([1]; relative humidity 93%)	Purity ([2]; Initial, HPLC)	Purity ([2]; Week 2, HPLC)	Purity ([2]; Week 4, HPLC)	Purity ([2]; Week 8, HPLC)	Purity ([3]; Initial, HPLC)	Purity ([3]; Week 2, HPLC)	Purity ([3]; Week 4, HPLC)	further results
OC[C@H]1O[C@@H](c2cc(Cc3ccc(C4CC4)cc3)c(Cl)c3c2CCO3)[C@H](O)[C@@H](O)[C@@H]1O [Crystalline form A of enavogliflozin, enavogliflozin]	0%	0.5%	0.5%	0.5%	0.5%	99.1%	98.8%	99.1%	99.5%	99.8%	99.8%	99.8%	
OC[C@H]1O[C@@H](c2cc(Cc3ccc(C4CC4)cc3)c(Cl)c3c2CCO3)[C@H](O)[C@@H](O)[C@@H]1O [Crystalline form E of enavogliflozin, enavogliflozin]	0%	0.3%	0.3%	0.3%	0.3%	99.0%	99.2%	99.2%	99.5%	99.0%	99.3%	99.3%	Hygroscopicity compared to crystalline form A (in words) ([1]; relative humidity 11% to 93%): more improved hygroscopicity; Stress stability, purity and crystalline form (in words) ([2]; 8 weeks at 60° C.): stably maintained; Stress stability, purity and crystalline form (in words) ([3]; 4 weeks at 93% RH): stably maintained; PK exposure parameters AUClast and AUCinf compared to crystalline form A (in words) [4, 5]: increased; Tmax reduction compared to crystalline form A [4, 5]: ≥ 1.25 times; AUC(0-inf) ([4]; male beagle dog, plasma): 4.82 µg·h/mL; AUC(0-t) ([4]; male beagle dog, plasma): 4.54 µg·h/mL; Cmax ([4]; male beagle dog, plasma): 0.47 µg/mL; Tmax ([4]; male beagle dog, plasma): 3.2 h; half-life ([4]; male beagle dog, plasma): 5.04 h
